Data as given in the NIST ThermoML archive (doi:10.1016/j.jct.2017.08.024).

Experiments:
[1] = for surface tension liquid-gas: wilhelmy plate; for viscosity: 101.33 kPa, Liquid, Concentric cylinders viscometry
[2] = wn = mass fraction of the nth substance listed; details: for surface tension liquid-gas: wilhelmy plate; for viscosity: 101 kPa, Liquid, Concentric cylinders viscometry

NCCO [2-aminoethan-1-ol]
[1]
Details | surface tension liquid-gas [mN/m] | viscosity [mPa·s]
303.2 K | 47.7 | 14.47
313.2 K | 45.9 | 9.87
323.2 K | 44.2 | 6.79

NCCO [2-aminoethan-1-ol] + O
[2]
Details | surface tension liquid-gas, w1 = 0.2 [mN/m] | surface tension liquid-gas, w1 = 0.3 [mN/m] | surface tension liquid-gas, w1 = 0.4 [mN/m] | surface tension liquid-gas, w1 = 1 [mN/m] | viscosity, w1 = 0.2 [mPa·s] | viscosity, w1 = 0.3 [mPa·s] | viscosity, w1 = 0.4 [mPa·s] | viscosity, w1 = 1 [mPa·s]
303.2 K | 62.1 | 59.7 | 57.8 | 47.7 | 1.51 | 2.11 | 3.12 | 14.47
313.2 K | 60.4 | 58.4 | 56.3 | 45.9 | 1.18 | 1.63 | 2.29 | 9.87
323.2 K | 58.9 | 56.4 | 54.6 | 44.2 | 0.97 | 1.31 | 1.79 | 6.79

OCCNCCO [diethanolamine]
[1]
Details | surface tension liquid-gas [mN/m] | viscosity [mPa·s]
303.2 K | 46 | 381.21
313.2 K | 44.1 | 188.64
323.2 K | 42.8 | 105.98

OCCNCCO [diethanolamine] + O
[2]
Details | surface tension liquid-gas, w1 = 0.2 [mN/m] | surface tension liquid-gas, w1 = 0.3 [mN/m] | surface tension liquid-gas, w1 = 0.4 [mN/m] | surface tension liquid-gas, w1 = 1 [mN/m] | viscosity, w1 = 0.2 [mPa·s] | viscosity, w1 = 0.3 [mPa·s] | viscosity, w1 = 0.4 [mPa·s] | viscosity, w1 = 1 [mPa·s]
303.2 K | 63.3 | 60.5 | 58.3 | 46 | 1.64 | 2.57 | 4.27 | 381.21
313.2 K | 62.1 | 58.8 | 56.6 | 44.1 | 1.29 | 1.98 | 3.01 | 188.64
323.2 K | 59.9 | 57.4 | 54.7 | 42.8 | 1.03 | 1.42 | 2.27 | 105.98

CO [methanol]
[1]
Details | surface tension liquid-gas [mN/m] | viscosity [mPa·s]
303.2 K | 21.7 | 0.51
313.2 K | 20.9 | 0.44
323.2 K | 20 | 0.39

O [water]
[1]
Details | surface tension liquid-gas [mN/m] | viscosity [mPa·s]
303.2 K | 71.1 | 0.8
313.2 K | 69.4 | 0.65
323.2 K | 67.7 | 0.55

O [water] + NCCO
[2], w2 = 0
Details | surface tension liquid-gas [mN/m] | viscosity [mPa·s]
303.2 K | 71.1 | 0.8
313.2 K | 69.4 | 0.65
323.2 K | 67.7 | 0.55

O [water] + OCCNCCO
[2], w2 = 0
Details | surface tension liquid-gas [mN/m] | viscosity [mPa·s]
303.2 K | 71.1 | 0.8
313.2 K | 69.4 | 0.65
323.2 K | 67.7 | 0.55
